Data taken from patent US20080095764A1, “Use of genetically-and epigenetically-altered protocadherins in methods of diagnosing, prognosing, and treating cancer” (THE TRUSTEES OF COLUMBIA UNIVERSITY IN THE CITY OF NEW YORK, priority 2004, published 2008).
“Also recorded” adds a separate entry of the source.

Tested on: PCDH8 expression in MDA-MB-435s cells
Experiment: 5-aza-deoxycytidine treatment, reactivation of PCDH8 expression (RT-PCR)
Format: cell-based, human
Conditions: MDA-MB-435s breast cancer cells with methylated PCDH8 promoter, 1 μM 5-aza-deoxycytidine for 72 hours, vs PBS control
Protocol: Cells were lysed in solution D, and RNA was separated by CsCl. RNA was resuspended in sodium acetate, and reprecipitated with ethanol. The pellet was dissolved in DEPC-treated water. RNA was primed with random hexamers, and reverse-transcribed with Superscript II reverse transcriptase (Invitrogen).
cDNA was synthesized from RNA primed with random hexamers (Amersham). Primers used for RT-PCR are below: DIAPH3: […] (SEQ ID NO:74, […] (SEQ ID NO:75). PCDH8: TGGCGGTGTGGAAAGGACA (SEQ ID NO:75), […] (SEQ ID NO:76). For reactivation studies, cells were treated with 1 μM 5-aza-deoxycytidine for 72 hours.
Cells were plated to 20% confluence, and treated with fresh 1 micromolar 5-aza-deoxycytidine for 72 h. RNA and cDNA were prepared from the cells and subjected to PCR.

Q: Which “PCDH8 expression after treatment” value does the source give for Nc1ncn([C@H]2C[C@H](O)[C@@H](CO)O2)c(=O)n1 [5-aza-deoxycytidine] here?
A: restored; also recorded: reactivated
